Format in all cases: cell-based
Experiment [1] has as its target T1, 17β-hydroxysteroid dehydrogenase type 1 (17β-HSD type 1) (Homo sapiens, UniProt P14061).
T1 construct: expressed in transfected cells; host or cells: MCF-7
T1 sequence (P14061 1-328): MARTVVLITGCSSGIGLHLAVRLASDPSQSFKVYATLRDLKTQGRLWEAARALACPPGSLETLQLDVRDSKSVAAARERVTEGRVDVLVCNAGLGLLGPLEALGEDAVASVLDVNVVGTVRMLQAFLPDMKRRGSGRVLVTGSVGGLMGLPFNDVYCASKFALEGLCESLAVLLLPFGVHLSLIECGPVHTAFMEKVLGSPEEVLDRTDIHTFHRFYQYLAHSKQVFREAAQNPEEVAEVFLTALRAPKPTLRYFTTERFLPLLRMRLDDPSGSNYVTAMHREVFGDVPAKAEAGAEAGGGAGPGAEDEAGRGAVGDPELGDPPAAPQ
The experiment in a line: Inhibition of 17β-HSD type 1 in MCF-7 cells stably expressing the isoenzyme (tritium labeled estrone conversion, HPLC). The note with it: MCF-7 cells expressing 17β-HSD type 1, 2 nM tritium labeled estrone; for inhibition at 1 µM / inhibition at 10 µM: MCF7; for inhibition at 1 µM / % Inhibition HSD1 1 μM: 1 μM test compound; for inhibition at 1 µM: read-out: % Inhibition HSD1 1 μM; for inhibition at 10 µM / % Inhibition HSD1 10 μM: 10 μM test compound; for inhibition at 10 µM: read-out: % Inhibition HSD1 10 μM. From the text: (§1) Biological Testing Materials and Methods 1. Inhibition of the 17β-hydroxysteroid dehydrocienase type 1, type 2 and type 3 enzyme
(§2) The compounds were screened in respect of 17β-HSD enzyme activity in vitro on established MCF-7 cell lines, each stably expressing one of the respective 17β-HSD isoenzymes. The interconversion of substrate by each isoenzyme and the 17β-HSD inhibiting activity of chemical compounds in these cell lines were detected by HPLC system.
(§3) Varying amounts of the test compounds were incubated in the growth medium of the 17β-HSD expressing cells together tritium labeled substrate (2 nM estrone for 17β-HSD type 1; 2 nM estradiol for 17β-HSD type 2; and 2 nM androstenedione for 17β-HSD type 3). The medium samples were removed after exact incubation time and the reaction is stopped by trichloroacetic acid (TCA). The samples were analyzed by HPLC-coupled flow scintillation analysis.
(§4) For each enzyme type, the HSD-inhibiting activity of an individual test compound was calculated by comparing the conversion of a control sample without any test compound (referred to as “Negative Control”) to the (reduced) conversion of the test sample containing the particular compound to be tested (referred to as “Test Sample”).
(§5) Two concentrations of each compound were used. The number of the compound refers to the numbers indicated in the Experimental Section.

For experiment [2], the target named is T2, 17β-hydroxysteroid dehydrogenase type 2 (17β-HSD type 2) (Homo sapiens, UniProt P37059).
T2 construct: expressed in transfected cells; host or cells: MCF-7
T2 sequence (P37059 1-387): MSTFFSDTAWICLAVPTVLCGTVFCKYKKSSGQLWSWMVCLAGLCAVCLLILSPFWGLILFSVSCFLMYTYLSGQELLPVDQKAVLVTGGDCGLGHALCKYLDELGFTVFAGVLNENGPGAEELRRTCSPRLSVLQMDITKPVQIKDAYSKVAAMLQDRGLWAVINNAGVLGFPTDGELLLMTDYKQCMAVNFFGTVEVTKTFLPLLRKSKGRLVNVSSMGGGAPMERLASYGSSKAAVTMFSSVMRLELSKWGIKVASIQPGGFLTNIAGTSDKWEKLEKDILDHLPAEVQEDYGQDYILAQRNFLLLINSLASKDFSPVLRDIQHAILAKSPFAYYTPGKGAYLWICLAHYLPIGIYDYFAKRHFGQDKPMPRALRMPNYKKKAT
The experiment in a line: Inhibition of 17β-HSD type 2 in MCF-7 cells stably expressing the isoenzyme (tritium labeled estradiol conversion, HPLC). The note with it: MCF-7 cells expressing 17β-HSD type 2, 2 nM tritium labeled estradiol; for inhibition at 1 µM / inhibition at 10 µM: MCF7; for inhibition at 1 µM / % Inhibition HSD2 1 μM: 1 μM test compound; for inhibition at 1 µM: read-out: % Inhibition HSD2 1 μM; for inhibition at 10 µM / % Inhibition HSD2 10 μM: 10 μM test compound; for inhibition at 10 µM: read-out: % Inhibition HSD2 10 μM.
From the text: as §1, §2, §3, §4, §5

Experiment [3] concerns the target T3, 17β-hydroxysteroid dehydrogenase type 3 (17β-HSD type 3) (Homo sapiens, UniProt P37058).
T3 construct: expressed in transfected cells; host or cells: MCF-7
T3 sequence (P37058 1-310): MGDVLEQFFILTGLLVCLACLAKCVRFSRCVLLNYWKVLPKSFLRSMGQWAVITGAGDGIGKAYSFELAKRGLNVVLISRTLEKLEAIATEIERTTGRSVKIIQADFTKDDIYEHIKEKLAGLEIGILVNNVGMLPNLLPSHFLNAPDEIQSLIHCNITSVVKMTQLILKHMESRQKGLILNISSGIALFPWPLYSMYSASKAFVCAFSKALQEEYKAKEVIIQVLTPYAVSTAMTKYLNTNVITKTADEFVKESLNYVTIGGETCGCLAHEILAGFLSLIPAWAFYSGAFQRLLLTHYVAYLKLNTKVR
The experiment in a line: Inhibition of 17β-HSD type 3 in MCF-7 cells stably expressing the isoenzyme (tritium labeled androstenedione conversion, HPLC). Conditions: MCF-7 cells expressing 17β-HSD type 3, 2 nM tritium labeled androstenedione; for inhibition at 1 µM / inhibition at 10 µM: MCF7; for inhibition at 1 µM / % Inhibition HSD3 1 μM: 1 μM test compound; for inhibition at 1 µM: read-out: % Inhibition HSD3 1 μM; for inhibition at 10 µM / % Inhibition HSD3 10 μM: 10 μM test compound; for inhibition at 10 µM: read-out: % Inhibition HSD3 10 μM.
From the text: as §1, §2, §3, §4, §5

Regarding `COc1cc(-c2nc3sc4c(O)ccc(C)c4c3c(=O)n2Cc2ccccc2)c(Br)c(OC)c1OC` [No. 686, 3-Benzyl-2-(2-bromo-3,4,5-trimethoxyphenyl)-8-hydroxy-5-methyl-3H-benzo[4,5]thieno[2,3-d]pyrimidin-4-one], the figures for the inhibition at 1 µM in experiment [1], in experiment [2] and in experiment [3] were 2.1%, 2.1% and -1.1%, respectively. Besides, the values for the inhibition at 10 µM in experiment [1], in experiment [2] and in experiment [3] were 15%, 4.3% and 7.1%, respectively.
Consider `COc1cc(-c2nc3sc4c(O)cccc4c3c(=O)n2Cc2ccccc2)c(Cl)c(OC)c1OC` [No. 124, 3-Benzyl-2-(2-chloro-3,4,5-trimethoxyphenyl)-8-hydroxy-3H-benzo[4,5]thieno[2,3-d]pyrimidin-4-one], for which the inhibition at 1 µM is 40.2% in experiment [1], 0.2% in experiment [2] and 8.3% in experiment [3]. Also, the inhibition at 10 µM was found to be 73.3% in experiment [1], 17.6% in experiment [2] and 42.4% in experiment [3].
Regarding `COc1cc(-c2nc3sc4c(c3c(=O)n2CC2CCCO2)CCCC4=O)cc(OC)c1OC` (stereo not drawn) [No. 131, 3-(Tetrahydro-furan-2-ylmethyl)-2-(3,4,5-trimethoxyphenyl)-6,7-dihydro-3H,5H-benzo[4,5]thieno[2,3-d]pyrimidine-4,8-dione], the inhibition at 1 µM was found to be 37.7% in experiment [1], 31.2% in experiment [2] and 30.9% in experiment [3]. The inhibition at 10 µM in experiment [1] was 84.7%; in experiment [2], 40.1%; in experiment [3], 80.1%.
For the compound `O=C1CCCc2c1sc1nc(-c3cccs3)n(Cc3ccccc3)c(=O)c21` [No. 62, 3-Benzyl-2-thiophen-2-yl-6,7-dihydro-3H,5H-benzo[4,5]thieno[2,3-d]pyrimidine-4,8-dione], the inhibition at 1 µM in experiment [1] worked out at 25.8%; in experiment [2] it was 18.9%; in experiment [3], 18%. Besides, the inhibition at 10 µM in experiment [1] worked out at 32%; in experiment [2] it was 26.4%; in experiment [3], 28%.
For `O=c1c2c(nc(Cc3ccccc3)n1CCc1cccs1)sc1c(O)cccc12` [No. 641], in experiment [1], the “% Inhibition HSD1 1 μM” value turned out to be 20.4% and the “% Inhibition HSD1 10 μM” value amounted to 35.0%. Besides, in experiment [2], the “% Inhibition HSD2 1 μM” value came out at 10.5% and the “% Inhibition HSD2 10 μM” value came to 36.9%. Further, in experiment [3], the “% Inhibition HSD3 1 μM” value amounted to 13.2% and the “% Inhibition HSD3 10 μM” value turned out to be 55.7%.
Consider `COc1cc(-c2nc3sc4c(Cl)c(C=O)ccc4c3c(=O)n2Cc2ccccc2)c(Cl)c(OC)c1OC` [No. 150, 3-Benzyl-8-chloro-2-(2-chloro-3,4,5-trimethoxyphenyl)-4-oxo-3,4-dihydro-benzo[4,5]thieno[2,3-d]pyrimidine-7-carbaldehyde], for which the inhibition at 1 µM in experiment [1] is 0.4%; in experiment [2], 6.4%; in experiment [3] it was -1.1%. Besides, the inhibition at 10 µM in experiment [1] was found to be 3.4%; in experiment [2] it was 11.4%; in experiment [3], 22%.
For the compound `COc1cccc(-c2nc3sc4c(O)cccc4c3c(=O)n2Cc2ccccc2)c1` [No. 83, 3-Benzyl-8-hydroxy-2-(m-methoxyphenyl)-3H-benzo[4,5]thieno[2,3-d]pyrimidin-4-one], the results for the inhibition at 1 µM in experiment [1], in experiment [2] and in experiment [3] were 25.4%, 26.1% and 13.5%, respectively. Also, the inhibition at 10 µM in experiment [1] is 26.3%; in experiment [2], 60.1%; in experiment [3] it was 21%.
For `COc1cccc(-c2nc3sc4c(c3c(=O)n2Cc2ccccc2)CCCC4=O)c1` [No. 79, 3-Benzyl-2-(m-methoxyphenyl)-6,7-dihydro-3H,5H-benzo[4,5]thieno[2,3-d]pyrimidine-4,8-dione], the inhibition at 1 µM in experiment [1] worked out at 26.6%; in experiment [2], 34.4%; in experiment [3] it was 21.9%. The inhibition at 10 µM in experiment [1] was found to be 39.1%; in experiment [2] it was 31.6%; in experiment [3], 59.7%.
On to `COc1cc(-c2nc3sc4c(c3c(=O)n2Cc2ccccc2)CCCC4)cc(OC)c1OC` [No. 1, 3-benzyl-2-(3,4,5-trimethoxyphenyl)-5,6,7,8-tetrahydro-3H-benzo[4,5]thieno[2,3-d]pyrimidin-4-one], for which the inhibition at 1 µM was 0.8% in experiment [1], 7.3% in experiment [2] and -8.8% in experiment [3]. The inhibition at 10 µM stood at 21.1% in experiment [1], 17.4% in experiment [2] and 6.3% in experiment [3].
Consider `O=c1c2c(nc(CCc3ccccc3)n1Cc1ccccc1)sc1c(O)cccc12` [No. 659], for which, in experiment [1], the “% Inhibition HSD1 1 μM” value is reported as 14.4% and the “% Inhibition HSD1 10 μM” value is listed as 35.4%. In experiment [2], the “% Inhibition HSD2 1 μM” value is reported as 16.3% and the “% Inhibition HSD2 10 μM” value worked out at 33.9%. Moreover, in experiment [3], the “% Inhibition HSD3 1 μM” value was 22.9% and the “% Inhibition HSD3 10 μM” value is given as 76.1%.
With `O=c1c2c(nc(-c3ccc(Br)s3)n1Cc1ccccc1)sc1c(O)cccc12` [No. 68, 3-Benzyl-2-(5-bromothiophen-2-yl)-8-hydroxy-3H-benzo[4,5]thieno[2,3-d]pyrimidin-4-one], the inhibition at 1 µM in experiment [1] amounted to 9%; in experiment [2] it was 15.5%; in experiment [3] it was 7.3%. Besides, the inhibition at 10 µM was 21.5% in experiment [1], 49% in experiment [2] and 40.7% in experiment [3].
Regarding `CCCCC(CC)c1nc2sc3c(O)cccc3c2c(=O)n1Cc1ccccc1` (stereo not drawn) [No. 663], in experiment [1], the “% Inhibition HSD1 1 μM” value came out at 26.3% and the “% Inhibition HSD1 10 μM” value is given as 24.6%. In experiment [2], the “% Inhibition HSD2 1 μM” value was found to be 37.4% and the “% Inhibition HSD2 10 μM” value is reported as 57.6%. In addition, in experiment [3], the “% Inhibition HSD3 1 μM” value is given as 12.4% and the “% Inhibition HSD3 10 μM” value was determined as 45.6%.
On to `O=c1c2c3c(sc2nc(CO)n1Cc1ccccc1)CCCC3` [No. 28, 3-Benzyl-2-hydroxymethyl-5,6,7,8-tetrahydro-3H-benzo[4,5]thieno[2,3-d]pyrimidin-4-one], for which the inhibition at 1 µM in experiment [1] was found to be 2.6%; in experiment [2] it was 12.9%; in experiment [3] it was 1.9%. Further, the inhibition at 10 µM worked out at 18% in experiment [1], 16.3% in experiment [2] and 16.7% in experiment [3].

The values above are taken from patent publication US7524853B2 (Solvay Pharmaceuticals B.V., priority 2003, dated 2009).
